The subject of assay [1] is S. aureus SH1000. Briefly: Monospecies bacterial biofilm inhibition, static peg assay. The format is cell-based, Staphylococcus aureus. On the procedure: (§1) A static peg assay, described previously ([27], [74]), was used for bacterial biofilm formation. The Calgary biofilm device consists of a platform carrying 96 polystyrene pegs (Nunc no. 445497) that fits as a microtiter plate lid, with 1 peg hanging into each microtiter plate well (Nunc no. 269789). Twofold serial dilutions of the compounds (dissolved in 100% dimethyl sulfoxide [DMSO] or ethanol) in 100 μl liquid broth (TSB diluted 1/20) per well were prepared in the microtiter plate in duplicate or triplicate with a maximum concentration of 1,600 μM and a minimum concentration of 0.8 μM. Subsequently, an overnight culture of S. Typhimurium ATCC 14028, P. aeruginosa PA14, E. coli TG1, S. epidermidis, S. aureus SH1000, or S. aureus ATCC 6538 (all grown in LB) was diluted 1:100 into TSB diluted 1/20 (or TSB for S. epidermidis, S. aureus SH1000, and S. aureus ATCC 6538), whereas overnight cultures of S. liquefaciens MG44 and B. cepacia LMG1222T were diluted 1:50 into TSB diluted 1/20. P. gingivalis ATCC 33277 cultures were diluted in TSB diluted 1/20 to have a final concentration of 1 × 10^8 cells/ml. Next, 100 μl was added to each well of the microtiter plate, resulting in a total volume of 200 μl medium per well (final concentration range of compounds, 800 μM [2% DMSO or ethanol] to 0.4 μM [0.001% DMSO or ethanol]). In the next step, the pegged lid was placed on the microtiter plate and the plate was incubated for 24 h or 48 h at 25°C or 37°C without shaking. At 37°C, the plates were placed in a sealed container with wet towels on the bottom to prevent evaporation of the growth medium. Biofilms of P. gingivalis ATCC 33277 were grown anaerobically at 37°C for 72 h. During this incubation period, biofilms were formed on the surface of the pegs. After incubation, the optical density at 600 nm (OD600) for the planktonic cells in the microtiter plate was measured using a Synergy MX multimode reader (BioTek, Winooski, VT). This gives a first indication of the effect of the compounds on planktonic growth. For quantification of biofilm formation, the pegs were washed once in 200 μl PBS. The remaining attached bacteria were stained for 30 min with 200 μl 0.1% (wt/vol) crystal violet in an isopropanol-methanol-PBS solution (1:1:18, vol/vol). Excess stain was rinsed off by placing the pegs in a 96-well plate filled with 200 μl distilled water per well. After air drying of the pegs (30 min), the dye bound to the adherent biofilm was extracted with 30% glacial acetic acid (200 μl per well of a 96-well plate). The optical density at 570 nm (OD570) of each well was measured using a Synergy MX multimode reader (BioTek, Winooski, VT). The concentration of each compound needed to inhibit biofilm formation by 50% (BIC50) and the concentration of each compound needed to inhibit planktonic growth by 50% (IC50) were determined from the concentration gradient by using nonlinear curve fitting (GraphPad Prism software, version 5; GraphPad Software, Inc., La Jolla, CA). In the same assay, the effect on planktonic growth was evaluated. The activity was considered biofilm specific if the BIC50 was at least two times lower than the IC50. Data represent the means from at least 3 technical repeats with the corresponding 95% confidence intervals (provided in the supplemental material).

Assay [2] has as its system S. Typhimurium ATCC 14028. The description is as above. The format is cell-based, Salmonella enterica serovar Typhimurium. The note with it: Salmonella enterica, S. Typhimurium ATCC 14028, 25°C. On the procedure: as §1
In assay [3] the test system is C. albicans SC5314 + S. epidermidis. Kind of assay: Mixed C. albicans-S. epidermidis biofilm, selective plating CFU. The assay is classed as cell-based, Candida albicans + Staphylococcus epidermidis. The note with it: 37°C. On the procedure:
Overnight cultures of C. albicans SC5314 (YPD) and S. epidermidis (TSB) were diluted in RPMI 1640 medium to OD600s of 0.05 and 0.01, respectively. Equal volumes of the cell suspensions of each organism were mixed before use. One hundred microliters of this mixed cell suspension together with compound was added to the wells of a round-bottom microtiter plate (TPP; Trasadingen, Switzerland) in triplicate. Concentrations of 25 μM (0.0625% DMSO or ethanol) and 100 μM (0.25% DMSO or ethanol) were tested. After 24 h of incubation at 37°C, the biofilms were washed with PBS and fresh medium with or without compounds was added. After a further incubation for 48 h at 37°C, the biofilms were washed with PBS, after which the cells were resuspended in 100 μl of PBS by scraping them off, sonicated (1 min, 45 kHz; USC300-T; VWR, Radnor, PA, USA), and vigorously pipetted up and down. Finally, the biofilm cells were diluted in PBS and plated on YPD agar plates containing 100 mg/liter ampicillin and TSA plates containing 25 mg/liter amphotericin B to determine the number of fungal and bacterial CFU, respectively, after 2 days of incubation at 37°C. The percentage of C. albicans SC5314 and S. epidermidis cells relative to the number of cells after DMSO or ethanol control treatment was determined.

In assay [4] the test system is C. albicans SC5314 + E. coli MG1655. Briefly: Mixed C. albicans-E. coli biofilm, selective plating CFU. The format is cell-based, Candida albicans + Escherichia coli. The note with it: 37°C. The procedure: Overnight cultures of C. albicans SC5314 (YPD) and E. coli MG1655 (TSB) were washed three times with PBS, after which they were diluted in RPMI 1640 medium to OD600s of 1 and 0.01, respectively. Equal volumes of these cell suspensions were mixed, and 100 μl of this mixed cell suspension together with compound was added to the wells of a microtiter plate in triplicate. Concentrations of 25 μM (0.0625% DMSO or ethanol) and 100 μM (0.25% DMSO or ethanol) were tested. After 24 h of incubation at 37°C, the medium was removed and the biofilm was washed with PBS. Next, the cells were resuspended in 100 μl of PBS by scraping them off, sonicated (1 min, 45 kHz; USC300-T; VWR, Radnor, PA, USA), and vigorously pipetted up and down. Finally, dilution series were made, and quantification of the E. coli MG1655 and C. albicans SC5314 populations was performed using selective plating on tryptic soy agar (TSA) plates containing 25 mg/liter amphotericin B and YPD plates containing 100 μg/ml tetracycline, respectively. The percentage of C. albicans SC5314 and E. coli MG1655 cells relative to the number of cells after DMSO or ethanol control treatment was determined.

Setting [5] is: Staphylococcus aureus, SH1000, S. aureus SH1000, 37°C, read-out: BIC50.
Where [6] appears, read: Staphylococcus aureus, SH1000, S. aureus SH1000, 37°C, read-out: IC50 (planktonic growth).
The mark [7] stands for this setting: 25 μM compound, read-out: % CFU survival, C. albicans.
Where [8] appears, read: 25 μM compound, read-out: % CFU survival, S. epidermidis.
The mark [9] stands for this setting: 100 μM compound, read-out: % CFU survival, C. albicans.
The mark [10] stands for this setting: 100 μM compound, read-out: % CFU survival, S. epidermidis.
Setting [11] is: 25 μM compound, relative to solvent control.

Read-outs that look alike come from different tables or passages of the source. A value given as a limit tells only on which side of the number the result lay.

With `CCCCCn1c(-c2ccccc2)cnc1N` [Compound 1], the figures for the IC50 in assay [1] (setting [5]), in assay [1] (setting [6]) and in assay [2] (read-out: BIC50) were 163 µM, greater than 400 µM and 48.4 µM, respectively.
As to `CCCCCCCCn1c(-c2ccccc2)cnc1NC1CCCC1` [Compound 8e], the activity at 25 µM in assay [3] (setting [7]) was found to be 10%; in assay [3] (setting [8]), 93.1%. Further, the activity at 100 µM in assay [3] (setting [9]) is 2.5%; in assay [3] (setting [10]), 0%.
Turning to `CCCCCCCCn1c(-c2ccc(Br)cc2)cnc1NCC(C)C` [Compound 8c], the activity at 25 µM in assay [3] (setting [7]) worked out at 3.2%; in assay [3] (setting [8]) it was 637%. Also, the activity at 100 µM was 8.4% in assay [3] (setting [9]) and 966% in assay [3] (setting [10]).
With `CC(C)CNc1ncc(-c2ccc(Cl)cc2)[nH]1` [Compound 3], the IC50 in assay [1] (setting [5]) came out at 200 µM; in assay [1] (setting [6]), 175 µM; in assay [2] (read-out: BIC50) it was 2 µM. In addition, the entries for the “% CFU survival, E. coli” value in assay [4] (25 μM compound) and in assay [4] (100 μM compound) were 138.5% and 63.0%, respectively. Also, the “% CFU survival, C. albicans” value in assay [4] (setting [11]) is given as 143.4%; in assay [4] (100 μM compound) it was 59.6%. Also, the activity at 25 µM came out at 58.3% in assay [3] (setting [7]) and 64.6% in assay [3] (setting [8]). Moreover, the activity at 100 µM in assay [3] (setting [9]) was determined as 235%; in assay [3] (setting [10]), 13.2%.
In the case of `CCCCCCCCn1c(-c2ccc(Cl)cc2)cnc1NC1CCCC1` [Compound 8f], the values for the activity at 25 µM in assay [3] (setting [7]) and in assay [3] (setting [8]) were 2.9% and 2.5%, respectively. The activity at 100 µM in assay [3] (setting [9]) turned out to be 7.2%; in assay [3] (setting [10]), 0.3%.
Regarding `Clc1ccc(-c2cnc(NC3CCCC3)[nH]2)cc1` [Compound 5], the IC50 is 70.6 µM in assay [1] (setting [5]), 71.5 µM in assay [1] (setting [6]) and 4.4 µM in assay [2] (read-out: BIC50). The “% CFU survival, E. coli” value in assay [4] (25 μM compound) came to 100.6%; in assay [4] (100 μM compound), 105.6%. The “% CFU survival, C. albicans” value in assay [4] (setting [11]) stood at 100.8%; in assay [4] (100 μM compound) it was 38.3%. Also, the figures for the activity at 25 µM in assay [3] (setting [7]) and in assay [3] (setting [8]) were 168% and 72%, respectively. Moreover, the “% CFU survival, S. epidermidis” value in assay [3] (100 μM compound) is recorded as “complete inhibition”. For the same compound, the activity at 100 µM in assay [3] (setting [9]) was 595%; in assay [3] (setting [10]) it was 2.3%.
As to `CCCCCCCCn1c(-c2ccc(Cl)c(Cl)c2)cnc1NCC(C)C` [Compound 8d], in assay [3] (setting [7]), the activity at 25 µM turned out to be 2.5%. For the same compound, the activity at 100 µM in assay [3] (setting [9]) is 1.4%.
As to `CCCCCCCCn1c(-c2ccc(Cl)c(Cl)c2)cnc1NC1CCCC1` [Compound 8h], the activity at 25 µM came out at 6.7% in assay [3] (setting [7]) and 2% in assay [3] (setting [8]). The activity at 100 µM was determined as 3.5% in assay [3] (setting [9]) and 2.2% in assay [3] (setting [10]).
`Brc1ccc(-c2cnc(NCCn3cc(C4CC4)nn3)[nH]2)cc1` [Compound 6]: the IC50 is greater than 400 µM in assay [1] (setting [5]), greater than 400 µM in assay [1] (setting [6]), 2 µM in assay [2] (read-out: BIC50) and 2.4 µM in assay [2] (read-out: IC50 (planktonic growth)).
With `CCCCCCCCn1c(-c2ccc(Cl)cc2)cnc1N` [Compound 2], the IC50 in assay [1] (S. aureus SH1000, 37°C, read-out: BIC50) is 3.4 µM; in assay [1] (setting [5]), 2 to 6 µM; in assay [1] (setting [6]), 8.3 µM; in assay [2] (read-out: BIC50) it was roughly 5.9 µM. Also, the “% CFU survival, E. coli” value in assay [4] (25 μM compound) is 158.6%; in assay [4] (100 μM compound), 0.1%. The “% CFU survival, C. albicans” value in assay [4] (setting [11]) is 104.9%; in assay [4] (100 μM compound), 0.0%; in assay [3] (25 μM compound), “completely inhibited”. Moreover, the “% CFU survival, S. epidermidis” value in assay [3] (25 μM compound) is “completely inhibited”. Moreover, the activity at 25 µM in assay [3] (setting [7]) was less than 0.6%; in assay [3] (setting [8]) it was 0%. The activity at 100 µM in assay [3] (setting [9]) was less than 0.2%; in assay [3] (setting [10]) it was 0%.
For the compound `CCCCNc1ncc(-c2ccc(Br)cc2)[nH]1` [Compound 4], the IC50 was determined as 66.5 µM in assay [1] (setting [5]), 89.4 µM in assay [1] (setting [6]) and 7.1 µM in assay [2] (read-out: BIC50).
`CCCCCCCCn1c(-c2ccc(Br)cc2)cnc1NC1CCCC1` [Compound 8g]: the activity at 25 µM came to 3.3% in assay [3] (setting [7]) and 0% in assay [3] (setting [8]). In addition, the activity at 100 µM stood at 5.9% in assay [3] (setting [9]) and 0% in assay [3] (setting [10]).
Turning to `CCCCCCCCn1c(-c2ccc(Cl)cc2)cnc1NCC(C)C` [Compound 8b], the activity at 25 µM in assay [3] (setting [7]) worked out at 2%; in assay [3] (setting [8]) it was 6.1%. Moreover, the activity at 100 µM was 18.2% in assay [3] (setting [9]) and 0.7% in assay [3] (setting [10]).
Consider `CCCCCCCCn1c(-c2ccccc2)cnc1NCC(C)C` [Compound 8a], for which, in assay [3] (setting [7]), the activity at 25 µM was determined as 62.4%. Moreover, the activity at 100 µM in assay [3] (setting [9]) and in assay [3] (setting [10]) was 1% each time.

Source of the values: publication PMC5075052, “Modulation of the Substitution Pattern of 5-Aryl-2-Aminoimidazoles Allows Fine-Tuning of Their Antibiofilm Activity Spectrum and Toxicity” (Antimicrobial Agents and Chemotherapy, 2016).
